pEC50: −log10 of the molar value.
test system: HCV 1b genotype replicon; assay: HCV genotype-1b replicon assay (qRT-PCR or luciferase); format: cell-based; details: Hepatitis C virus; HCV 1b replicon cell lines (SGR 11-7 or Huh-luc/neo-ET); qRT-PCR or luciferase readout; read-out: Genotype-1b replicon EC50 Range
Source text: HCV replicon cell lines (kindly provided by R. Bartenschlager) isolated from colonies as described by Lohman et al. (Lohman et al. (1999) Science 285: 110-113, expressly incorporated by reference in its entirety) and used for all experiments. The HCV replicon has the nucleic acid sequence set forth in EMBL Accession No.: AJ242651, the coding sequence of which is from nucleotides 1801 to 8406.
The coding sequence of the published HCV replicon was synthesized and subsequently assembled in a modified plasmid pBR322 (Promega, Madison, Wis.) using standard molecular biology techniques. One replicon cell line (“SGR 11-7”) stably expresses HCV replicon RNA which consists of (i) the HCV 5′UTR fused to the first 12 amino acids of the capsid protein, (ii) the neomycin phosphotransferase gene (neo), (iii) the IRES from encephalomyocarditis virus (EMCV), and (iv) HCV NS2 to NS5B genes and the HCV 3′UTR. […]
EC50 values of single agent compounds and combinations were determined by HCV RNA detection using quantitative RT-PCR, according to the manufacturer's instructions, with a TaqMan® One-Step RT-PCR Master Mix Reagents Kit (Cat#AB 4309169, Applied Biosystems) on an ABI Model 7500 thermocycler. The TaqMan primers used for detecting and quantifying HCV RNA were obtained from Integrated DNA Technologies. HCV RNA was normalized to GAPDH RNA levels in drug-treated cells, which is detected and quantified using the Human GAPDH Endogenous Control Mix (Applied Biosystems, AB 4310884E). […] Chemical agent cytotoxicity is evaluated using an MTS assay according to the manufacturer's directions (Promega). […]

| SMILES | pEC50 |
| --- | --- |
| CN(C)[C@@H](C(=O)N1CCC[C@H]1c1ncc(-c2ccc3c(c2)Cc2cc(-c4cnc([C@@H]5CCCN5C(=O)[C@@H](c5ccccc5)N(C)C)[nH]4)ccc2-3)[nH]1)c1ccccc1 [Example 2] | > 9.00 |
| CN(C)[C@@H](C(=O)N1CCC[C@H]1c1ncc(-c2ccc(Oc3cccc(-c4cnc([C@@H]5CCCN5C(=O)[C@@H](c5ccccc5)N(C)C)[nH]4)c3)cc2)[nH]1)c1ccccc1 [Example 1-f] | > 9.00 |
| CN(C)C(C(=O)N1CCC[C@H]1c1ncc(-c2ccc3cc4cc(-c5cnc([C@@H]6CCCN6C(=O)[C@@H](c6ccccc6)N(C)C)[nH]5)ccc4cc3c2)[nH]1)c1ccccc1 (stereo partly drawn) [Example 1-b] | > 9.00 |

— patent US8420686B2, “Linked diimidazole antivirals” (Enanta Pharmaceuticals, Inc., priority 2009, dated 2013)
